Test results taken from US20130165398A1, “CONCENTRATION-ENHANCING DRINK” (priority 2010, published 2013).
Several values for one entry are separate records, joined by “and”; a condition that tells them apart may be missing. Equal entries are not always repeated. Entries after “also recorded” stand apart in the source; their conditions may differ.

What was measured:
[1] = tested on: mitochondrial NAD^+; test: Mitochondrial NAD+ content by mitoPARP PAR formation, cell line not stated; assay type: cell-based, human; settings: for effect of the inhibitor on NR usage: NR as extracellular precursor, FIG. 4B; for function of NMN as extracellular NAD+ precursor in presence of the inhibitor: plasma membrane nucleoside transporter inhibitor added; for mitochondrial PAR formation from the extracellular precursor on overexpression of NRK1: FIG. 6
[2] = tested on: HeLa S3 cells; test: Cell viability by MTT assay, HeLa S3 cells; assay type: cell-based, human; settings: for cell survival with substance as extracellular precursor: FK866, FIG. 3B
Protocol: (§4) Inhibitors (2 μm FK866, 2 mM 3-AB, 10 μm NBTI, 2 μm dipyridamol, 2 mM CMP, 25 μm PPADS, 1 mM Ap4A) or metabolites (100 μM NAD^+, 100 μM NAAD, 100 μM NMN, 100 μM NAMN, 100 μM NA, 100 μM NR) were added to the cell culture medium as stated. […] The treatment with inhibitors and metabolites was carried out for 24-48 h before analysis of PAR formation and the viability of the cells (72 h for 293mitoPARP cells, 96 h for HeLa S3 cells and 120 h for HepG2 cells). The viability of the cells was determined by MTT assay.

[3] = tested on: 293mitoPARP cells; test: Cell viability by MTT assay, 293mitoPARP cells; assay type: cell-based, human; settings: for cell survival with substance as extracellular precursor: NamPRT inhibited by FK866, FIG. 3A
Protocol: as §4

[4] = tested on: HeLa S3 cells; test: Mitochondrial NAD+ content by mitoPARP PAR formation, HeLa S3 cells; assay type: cell-based, human; settings: FK866, FIG. 3B
Protocol: (§5) Inhibitors (2 μm FK866, 2 mM 3-AB, 10 μm NBTI, 2 μm dipyridamol, 2 mM CMP, 25 μm PPADS, 1 mM Ap4A) or metabolites (100 μM NAD^+, 100 μM NAAD, 100 μM NMN, 100 μM NAMN, 100 μM NA, 100 μM NR) were added to the cell culture medium as stated. […] The treatment with inhibitors and metabolites was carried out for 24-48 h before analysis of PAR formation and the viability of the cells (72 h for 293mitoPARP cells, 96 h for HeLa S3 cells and 120 h for HepG2 cells). The viability of the cells was determined by MTT assay. 293mitoPARP cells were prepared that express a fusion protein (“mitoPARP”), consisting of EGFP and PARP1cd (poly-ADP-ribose polymerase-1) which was targeted to the mitochondrial matrix. With mitochondrial NAD^+ as substrate, these cells generate protein-bound PAR (protein-bound poly-ADP ribose) constitutively, which is visualized immunochemically. Variations in the extent of the PAR detected thereby reflect changes in the mitochondrial NAD^+ content. Likewise, the transient expression of mitoPARP in HepG2 and HeLa S3 cells was used.

[5] = tested on: 293mitoPARP cells; test: Mitochondrial NAD+ content by mitoPARP PAR formation, 293mitoPARP cells; assay type: cell-based, human; settings: NamPRT inhibited by FK866, FIG. 3A
Protocol: as §5

[6] = tested on: HepG2 cells; settings: FK866, FIG. 3C
Protocol: Inhibitors (2 μm FK866, 2 mM 3-AB, 10 μm NBTI, 2 μm dipyridamol, 2 mM CMP, 25 μm PPADS, 1 mM Ap4A) or metabolites (100 μM NAD^+, 100 μM NAAD, 100 μM NMN, 100 μM NAMN, 100 μM NA, 100 μM NR) were added to the cell culture medium as stated. NR was prepared as described (Dölle et al., Anal, Biochem. 385 (2009), 377-379). The treatment with inhibitors and metabolites was carried out for 24-48 h before analysis of PAR formation and the viability of the cells (72 h for 293mitoPARP cells, 96 h for HeLa S3 cells and 120 h for HepG2 cells). The viability of the cells was determined by MTT assay.

[7] = tested on: human cells; test: Cell viability by MTT assay, cell line not stated; assay type: cell-based; settings: NPP inhibitor added
[8] = Triple test method: synchronous gaze studies (Viewpointsystem vision analyses: gaze latencies, blinking, pupil adaptation); assay type: in vivo, human
Protocol: (§1) Hereinafter the present invention is tested in the context of the Viewpointsystem® vision analyses, using standardized methods of investigation of the Vienna test system and using biomedical studies for stress research. In this method, in the vision laboratory, the triple test method is used with extremely high accuracy for evaluating psychophysical effects up to the degree of attention (cf. EP 1 300 108 A1, WO 2008/151346 A1).
(§2) 12 subjects were subdivided into 3 groups each of 4 subjects:
(§3) (1) drink according to the invention (150 mg of EGCG/20 mg of NR in 10 ml of H2O; “energy” or “energy-drink” group (2) EGCG alone (150 mg of EGCG; “green tea” group) (3) placebo (H2O and mannitol; “placebo” group)
Using this test system, the changes in attention, vision behavior, reaction, activation and stress were determined in the three groups. In this process the real directions of gaze and gaze motions of subjects were determined in the course of the Vienna test system—in the reaction and determination test, and also in considering defined situation sequences (standardized preset image and film sequences with events) and for selected specific suitability tests—filmed and recorded from the respective field of view (cf. EP 1 300 108 A1, WO 2008/151346 A1). […]

[9] = tested on: NMNAT1; test: Expression of NMNAT1 after adding EGCG to human cells; assay type: cell-based; settings: EGCG added to human cells
[10] = Triple test method: biomedical test battery (breathing rate, skin conductance level, heart rate), index of physiological/mental stress; assay type: in vivo, human
Protocol: as §1, §2, §3
The subjects were then studied systematically with respect to possible effects using the triple test study method, that is vps vision analyses—Vienna test system—biomedical test battery, in a standardized study, in such a manner that objective, statistically significant statements were made possible on the detection of concentration-enhancing activity of the drink according to the invention.
In parallel thereto, the relevant biomedical characteristics such as skin conductivity, pulse were also detected and evaluated. In total, therefore, in the course of the triple-test studies, for all action-relevant evaluation situations, gaze studies were carried out in the gaze laboratory, the gaze behavior and reaction times were analyzed. The effects on information uptake, including information stress and fatigue, were documented using the standardized gaze methods by raster-analysis programs.
After a baseline measurement, the study follows, wherein, inter alia, the following values are recorded: • heart frequency (HF: number of heart beats/minute) • blood volume pulse (BVP: measure of amount of blood which is pumped through the body per heart beat) • skin conductance value (SCL: skin conductance level/conductivity level, tonic measure, SCR: skin conductance response/phasic measure; reaction to individual stimuli)
In the detailed analyses, at the same time the gaze and biomedical data of the study sequences [reaction test (singular stimuli), determination test (multiple optical, acoustic stimuli), film viewing (real sequences from driver viewpoint and film trailers) and semiotics (animal pictures and logos)] were evaluated. Particular attention was paid to the skin conductance level (SCL), the heart rate (pulse; HR) and the breathing rate (AF).
After the physiological parameters were determined, for each section the statistical parameters mean/standard deviation/min/max/range/85% percentile were determined. In addition, the trend line equations were calculated.
For further statistical detailed evaluation, the 85% percentile values were used and the relative differences were compiled using the before/after relationship. This change was totaled as a dimension number.
After categorization of the subjects into 3 comparison groups, the dimension numbers were summed and represent an index of the physiological/mental stress of the subjects. The lower the number, the “more relaxed” the solving of the tasks by the subjects.

[11] = CMP competes with NMN for external 5'-nucleotidase
[12] = semiotics (animal pictures and logos), group sum

With `O=[N+]([O-])c1ccc(CSc2ncnc3c2ncn3[C@@H]2O[C@H](CO)[C@@H](O)[C@H]2O)cc1` [NBTI] the “effect of the inhibitor on NR usage” value [1] was “inhibit the NR usage” and the “function of NMN as extracellular NAD+ precursor in presence of the inhibitor” value ([1]; FIG. 4A) was “lost its function”.
With `O=C(/C=C/c1cccnc1)NCCCCC1CCN(C(=O)c2ccccc2)CC1` [FK866] the “effect of FK866 on cell viability” value ([2]; FIG. 3B) was “cell death” and the “effect of FK866 on cell viability” value ([3]; FIG. 3A) was “cell death”.
In the case of `NC(=O)c1ccc[n+]([C@@H]2O[C@H](COP(=O)([O-])O)[C@@H](O)[C@H]2O)c1` [NMN, nicotinamide mononucleotide], the “cell survival with substance as extracellular precursor” value (“cell survival with substance” for short) [2] is reported as “restoration of survival; also recorded: protect”, the “mitochondrial NAD+ formation with substance as extracellular precursor” value [4] is reported as “support mitochondrial NAD^+ formation” and the “mitochondrial NAD+ content/formation with substance as extracellular precursor” value (shortened to “mitochondrial NAD+ content/formation”) [5] is reported as “able to restore; also recorded: support mitochondrial NAD^+ formation”. The “mitochondrial PAR formation from the extracellular precursor on overexpression of NRK1” value [1] was “dramatic increase” and the “cell survival with substance” value [3] was “able to restore; also recorded: protect”.
With `NC(=O)c1ccc[n+]([C@@H]2O[C@H](COP(=O)([O-])OP(=O)(O)OC[C@H]3O[C@@H](n4cnc5c(N)ncnc54)[C@H](O)[C@@H]3O)[C@@H](O)[C@H]2O)c1` [NAD^+, nicotinamide adenine dinucleotide] the “mitochondrial PAR formation from the extracellular precursor on overexpression of NRK1” value [1] was “considerably improved”.
In the case of `Nc1ccn([C@@H]2O[C@H](COP(=O)(O)O)[C@@H](O)[C@H]2O)c(=O)n1` [CMP], the “cell viability with NMN as precursor on addition of CMP” value [2, 11] is reported as “decreases the cell viability” and the “cell viability with NMN as precursor on addition of CMP” value [3, 11] is reported as “decreases the cell viability”.
In the case of `O=C(O)c1cccnc1` [NA, nicotinic acid], the “cell survival with substance” value [2] is reported as “restoration of survival”, the “mitochondrial NAD+ content/formation” value [5] is reported as “able to restore” and the “generation of mitochondrial NAD+ with substance as extracellular precursor” value [6] is reported as “not able to provide support”. For the same compound, the “survival/viability of the cell with substance as extracellular precursor” value [6] was “not able to provide support” and the “cell survival with substance” value [3] was “able to restore”.
With `Cc1nc(N=Nc2ccc(S(=O)(=O)O)cc2S(=O)(=O)O)c(COP(=O)(O)O)c(C=O)c1O` [PPADS] the “restoration of the mitochondrial NAD+ pool with NAD+ as extracellular precursor” value ([1]; NPP inhibitor added, cell line not stated) was “prevents the restoration” and the “survival of the cell with NAD+ as extracellular precursor” value [7] was “prevents the restoration”.
For `O=C(O[C@@H]1Cc2c(O)cc(O)cc2O[C@@H]1c1cc(O)c(O)c(O)c1)c1cc(O)c(O)c(O)c1` [EGCG, (2R,3R)-2-(3,4,5-trihydroxyphenyl)-3,4-dihydro-1(2H)-benzopyran-3,5,7-triol 3-(3,4,5-trihydroxybenzoate)], the number of blinks ([8]; all test methods, compared with Energy group) was “markedly lower”, the “enhancement of gaze latencies in the after state” value ([8]; real film sequences, before/after) was “low enhancements” and the “increase of expression of NMNAT1” value [9] was 40%. For the same compound, the “AF (breathing rate) dimension number, Total” value ([10]; RT+DT+Film+Animals, group sum) was 14.21, the “HR (heart rate) dimension number, Total” value ([10]; RT+DT+Film+Animals, group sum) was 13.90 and the “SCL (skin conductance level) dimension number, Total” value ([10]; RT+DT+Film+Animals, group sum) was 17.79. The “dimension number TOTAL” value ([10]; T1+T2, individual subject, lower = more relaxed, listed as Green tea group) was 10.25 and 12.53 and 12.39 and 10.78, the “dimension number TOTAL, group Mean” value ([10]; T1+T2, mean of 4 subjects) was 11.49 and the “dimension number TOTAL, group Total” value ([10]; T1+T2, sum of 4 subjects) was 45.95. For the same compound, the “dimension number T1” value ([10]; T1: Vienna test system: reaction test/determination test, individual subject, summed relative before/after differences of 85% percentile values, lower = more relaxed, listed as Green tea group) was 4.81 and 5.51 and 6.86 and 5.11, the “dimension number T1, group Mean” value ([10]; T1: reaction test/determination test, mean of 4 subjects) was 5.57 and the “dimension number T1, group Total” value ([10]; T1: reaction test/determination test, sum of 4 subjects) was 22.29. The “dimension number T2” value ([10]; T2: Viewing film sequences/trailers/logos/animals, individual subject, lower = more relaxed, listed as Green tea group) was 5.45 and 7.02 and 5.53 and 5.67, the “dimension number T2, group Mean” value ([10]; T2: film sequences/trailers/logos/animals, mean of 4 subjects) was 5.92 and the “dimension number T2, group Total” value ([10]; T2: film sequences/trailers/logos/animals, sum of 4 subjects) was 23.67. The “HR (heart rate) dimension number, DT” value ([10]; determination test, group sum) was 3.44, the “SCL (skin conductance level) dimension number, DT” value ([10]; determination test, group sum) was 4.17 and the “AF (breathing rate) dimension number, DT” value ([10]; determination test, group sum, listed as Group 3) was 3.63 and 3.67. For the same compound, the “AF (breathing rate) dimension number, Film” value ([10]; film viewing, group sum) was 3.90, the “HR (heart rate) dimension number, Film” value ([10]; film viewing, group sum) was 3.61 and the “SCL (skin conductance level) dimension number, Film” value ([10]; film viewing, group sum) was 4.90. The “AF (breathing rate) dimension number, RT” value ([10]; reaction test, group sum) was 3.58, the “HR (heart rate) dimension number, RT” value ([10]; reaction test, group sum) was 3.42 and the “SCL (skin conductance level) dimension number, RT” value ([10]; reaction test, group sum) was 4.05. The “AF (breathing rate) dimension number, Animals” value [10, 12] was 3.10, the “HR (heart rate) dimension number, Animals” value [10, 12] was 3.49 and the “SCL (skin conductance level) dimension number, Animals” value [10, 12] was 4.67. For the same compound, the “performance ability for the problem solutions (ability to be stressed)” value ([10]; sum parameters, tendency, especially in the active test sequences) was “higher performance ability”.
With `OCCN(CCO)c1nc(N2CCCCC2)c2nc(N(CCO)CCO)nc(N3CCCCC3)c2n1` [dipyridamol] the “effect of the inhibitor on NR usage” value [1] was “inhibit the NR usage” and the “function of NMN as extracellular NAD+ precursor in presence of the inhibitor” value ([1]; FIG. 4A) was “lost its function”.
For `O=C(O)c1ccc[n+]([C@@H]2O[C@H](COP(=O)(O)O)[C@@H](O)[C@H]2O)c1` [NAMN, nicotinic acid mononucleotide], the “cell survival with substance” value [2] was “restoration of survival; also recorded: protect”, the “mitochondrial NAD+ formation with substance as extracellular precursor” value [4] was “support mitochondrial NAD^+ formation” and the “mitochondrial NAD+ content/formation” value [5] was “able to restore; also recorded: support mitochondrial NAD^+ formation”. For the same compound, the “mitochondrial NAD+ generation of NAMN in presence of dipyridamol and NBTI” value ([1]; compared with NMN, FIG. 4A) was “sensitive to these inhibitors, although less strongly” and the “cell survival with substance” value [3] was “able to restore; also recorded: protect”.
